Experimental data: PubChem BioAssay (NCI)
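Exposure lasted 48 hours, with cells grown in 96-well plates and compounds tested at five concentrations. TGI: total growth inhibition.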

Legend:
Experiment in all cases: DTP human tumour cell line panel, 48 h
TK-10 renal = system: TK-10 renal
KM12 colon = system: KM12 colon
SK-OV-3 ovarian = system: SK-OV-3 ovarian
HCT-116 colon = system: HCT-116 colon
SNB-19 CNS = system: SNB-19 CNS
SK-MEL-5 melanoma = system: SK-MEL-5 melanoma
SW-620 colon = system: SW-620 colon
OVCAR-3 ovarian = system: OVCAR-3 ovarian
HS 578T breast = system: HS 578T breast
M14 melanoma = system: M14 melanoma
NCI-H460 lung = system: NCI-H460 lung
786-0 renal = system: 786-0 renal
NCI/ADR-RES ovarian = system: NCI/ADR-RES ovarian
LOX IMVI melanoma = system: LOX IMVI melanoma
RPMI-8226 leukemia = system: RPMI-8226 leukemia
K-562 leukemia = system: K-562 leukemia
UO-31 renal = system: UO-31 renal
MDA-N = system: MDA-N
MALME-3M melanoma = system: MALME-3M melanoma
SNB-75 CNS = system: SNB-75 CNS
SR leukemia = system: SR leukemia
HCC-2998 colon = system: HCC-2998 colon
IGROV1 ovarian = system: IGROV1 ovarian
NCI-H522 lung = system: NCI-H522 lung
HOP-62 NSCLC = system: HOP-62 NSCLC
HOP-92 NSCLC = system: HOP-92 NSCLC
OVCAR-5 ovarian = system: OVCAR-5 ovarian
MCF7 breast = system: MCF7 breast
MDA-MB-231 breast = system: MDA-MB-231 breast
SF-539 CNS = system: SF-539 CNS
OVCAR-4 ovarian = system: OVCAR-4 ovarian
PC-3 prostate = system: PC-3 prostate
SF-268 CNS = system: SF-268 CNS
CAKI-1 renal = system: CAKI-1 renal
HT29 colon = system: HT29 colon
ACHN renal = system: ACHN renal
U251 CNS = system: U251 CNS
T-47D breast = system: T-47D breast
UACC-62 melanoma = system: UACC-62 melanoma
SN12C renal = system: SN12C renal
NCI-H226 lung = system: NCI-H226 lung
NCI-H23 lung = system: NCI-H23 lung
SK-MEL-28 melanoma = system: SK-MEL-28 melanoma
CCRF-CEM leukemia = system: CCRF-CEM leukemia
A549 NSCLC = system: A549 NSCLC
HCT-15 colon = system: HCT-15 colon
SF-295 CNS = system: SF-295 CNS
HL-60(TB) leukemia = system: HL-60(TB) leukemia
UACC-257 melanoma = system: UACC-257 melanoma
OVCAR-8 ovarian = system: OVCAR-8 ovarian
RXF 393 renal = system: RXF 393 renal
MOLT-4 leukemia = system: MOLT-4 leukemia
COLO 205 colon = system: COLO 205 colon
DU-145 prostate = system: DU-145 prostate
SK-MEL-2 melanoma = system: SK-MEL-2 melanoma
MDA-MB-435 = system: MDA-MB-435
EKVX NSCLC = system: EKVX NSCLC

Measured: TGI

OC1NC2CC3NC(O)C(O)NC3CC2NC1O (configuration not stated)
> 100 µM: all assays above
